From patent publication US12195482B1 (Arcus Biosciences, Inc., priority 2022, dated 2025)

Legend:
Axl = molecular target: T1, Axl (Homo sapiens, UniProt P30530); assay: Biochemical potency, HTRF KinEASE-TK kinase assay; set-up: purchased Invitrogen; conditions: 5 nM AXL, 700 μM ATP
T1 sequence (P30530 26-894): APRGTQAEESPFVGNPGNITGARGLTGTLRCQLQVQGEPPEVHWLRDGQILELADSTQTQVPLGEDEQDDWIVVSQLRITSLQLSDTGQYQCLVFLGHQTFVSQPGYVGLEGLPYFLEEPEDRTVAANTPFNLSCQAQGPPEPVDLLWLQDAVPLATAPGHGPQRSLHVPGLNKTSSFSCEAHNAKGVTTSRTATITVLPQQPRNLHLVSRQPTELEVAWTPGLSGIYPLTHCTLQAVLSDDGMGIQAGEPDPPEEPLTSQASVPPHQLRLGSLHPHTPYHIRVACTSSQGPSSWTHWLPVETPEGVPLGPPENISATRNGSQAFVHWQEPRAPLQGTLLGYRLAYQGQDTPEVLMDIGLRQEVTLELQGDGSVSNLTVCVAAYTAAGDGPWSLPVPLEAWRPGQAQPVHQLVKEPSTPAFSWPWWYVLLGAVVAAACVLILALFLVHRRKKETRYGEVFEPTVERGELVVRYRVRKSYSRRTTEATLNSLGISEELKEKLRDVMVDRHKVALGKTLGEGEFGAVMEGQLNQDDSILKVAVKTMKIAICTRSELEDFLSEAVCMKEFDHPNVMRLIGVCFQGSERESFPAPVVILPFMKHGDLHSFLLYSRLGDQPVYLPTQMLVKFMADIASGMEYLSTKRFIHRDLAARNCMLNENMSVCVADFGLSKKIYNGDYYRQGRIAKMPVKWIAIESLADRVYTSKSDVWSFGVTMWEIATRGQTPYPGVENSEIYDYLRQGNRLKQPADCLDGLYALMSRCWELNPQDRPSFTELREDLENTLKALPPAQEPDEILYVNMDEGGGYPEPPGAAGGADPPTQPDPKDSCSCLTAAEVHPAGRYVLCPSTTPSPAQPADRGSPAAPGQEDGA
Procedure, shortened: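 Compounds preincubated 1 h at RT with enzyme in 50 mM HEPES pH 7.4, 10 mM MgCl2, 0.01% BSA, 1 mM DTT; reactions then ran 2 h at RT with 5 nM AXL or 1 nM TYRO3/MER, 800 nM TK substrate-biotin, 700 μM ATP, 1% DMSO. HTRF 665/620 ratio read; percent activity calculated.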

p-AXL = molecular target: T2, p-AXL (Homo sapiens, UniProt P30530); assay: Axl phosphorylation inhibition ELISA in HEK293T cells transfected with NanoLuc-tagged AXL; format: cell-based; conditions: 1 h compound incubation, media (OptiMEM)
T2 construct: expressed in transfected cells; host or cells: HEK293T
T2 sequence (P30530 26-894): T1 sequence (P30530 26-894)
Procedure, shortened: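 Phospho-AXL detected by luminescence of NanoLuc tag after capture of cell lysate on biotinylated anti-phospho-tyrosine mAb plates (2 h). Lysates came from transiently transfected HEK293T cells treated 1 h at 37° C with serial 2-fold dilutions (22 points). IC50 by standard 4-parameter logistic fitting.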

Row | Compound | IC50 (Axl) [nM] | IC50 (p-AXL) [nM]
1 | Cc1cccnc1-c1ccc(-c2n[nH]c3ncc(-c4ccc5c(c4)CC[C@@H](N4C6COCC4C6)CC5)cc23)nc1 [Example 26, 3-Methyl-6′-{5-[(7S)-7-{3-oxa-6-azabicyclo[3.1.1]heptan-6-yl}-6,7,8,9-tetrahydro-5H-benzo[7]annulen-2-yl]-1H-pyrazolo[3,4-b]pyridin-3-yl}-2,3′-bipyridine] | < 100 | < 100
2 | COCCOc1cccnc1-c1ccc(-c2n[nH]c3ncc(-c4ccc5c(c4)CC[C@@H](N4C6COCC4C6)CC5)cc23)cc1 [Example 180, 6-[(7S)-2-(3-{4-[3-(2-Methoxyethoxy)pyridin-2-yl]phenyl}-1H-pyrazolo[3,4-b]pyridin-5-yl)-6,7,8,9-tetrahydro-5H-benzo[7]annulen-7-yl]-3-oxa-6-azabicyclo[3.1.1]heptane] | < 100 | < 100
3 | CC(C)(O)c1cccnc1-c1ccc(-c2c[nH]c3ncc(-c4ccc5c(c4)CC[C@@H](N4C6COCC4C6)CC5)cc23)cc1 [Example 95, 2-[2-(4-{5-[(7S)-7-{3-Oxa-6-azabicyclo[3.1.1]heptan-6-yl}-6,7,8,9-tetrahydro-5H-benzo[7]annulen-2-yl]-1H-pyrrolo[2,3-b]pyridin-3-yl}phenyl)pyridin-3-yl]propan-2-ol] | < 100 | < 100
4 | Cc1cccnc1-c1ccc(-c2c[nH]c3ncc(-c4ccc5c(c4)CC[C@@H](N4C[C@@H]6C[C@H]4CO6)CC5)cc23)cc1 [Example 187, (4S)-5-[(7S)-2-{3-[4-(3-Methylpyridin-2-yl)phenyl]-1H-pyrrolo[2,3-b]pyridin-5-yl}-6,7,8,9-tetrahydro-5H-benzo[7]annulen-7-yl]-2-oxa-5-azabicyclo[2.2.1]heptane] | < 100 | < 100
5 | CN(C)S(=O)(=O)c1cccnc1-c1ccc(-c2c[nH]c3ncc(-c4ccc5c(c4)CC[C@@H](N4C6COCC4C6)CC5)cc23)cc1 [Example 6, N,N-Dimethyl-2-(4-{5-[(7S)-7-{3-oxa-6-azabicyclo[3.1.1]heptan-6-yl}-6,7,8,9-tetrahydro-5H-benzo[7]annulen-2-yl]-1H-pyrrolo[2,3-b]pyridin-3-yl}phenyl)pyridine-3-sulfonamide] | < 100 | < 100
6 | c1ccc(-n2cc(-c3n[nH]c4ncc(-c5ccc6c(c5)CC[C@@H](N5C7COCC5C7)CC6)cc34)cn2)nc1 [Example 168, 6-[(7S)-2-{3-[1-(Pyridin-2-yl)-1H-pyrazol-4-yl]-1H-pyrazolo[3,4-b]pyridin-5-yl}-6,7,8,9-tetrahydro-5H-benzo[7]annulen-7-yl]-3-oxa-6-azabicyclo[3.1.1]heptane] | < 100 | 100 to 1000
7 | Cc1ccccc1-c1ccc(-c2c[nH]c3ncc(-c4ccc5c(c4)CC[C@@H](N4C6COCC4C6)CC5)cc23)nc1 [Example 97, 6-[(7S)-2-{3-[5-(2-Methylphenyl)pyridin-2-yl]-1H-pyrrolo[2,3-b]pyridin-5-yl}-6,7,8,9-tetrahydro-5H-benzo[7]annulen-7-yl]-3-oxa-6-azabicyclo[3.1.1]heptane] | < 100 | > 1000
8 | Cc1cccnc1-c1ccc(-c2n[nH]c3ncc(-c4ccc5c(c4)CC[C@@](C)(N4CCC[C@H]4C)CC5)cc23)cc1 [Example 163, 3-Methyl-2-(4-{5-[(7S)-7-methyl-7-[(2R)-2-methylpyrrolidin-1-yl]-6,7,8,9-tetrahydro-5H-benzo[7]annulen-2-yl]-2H-pyrazolo[3,4-b]pyridin-3-yl}phenyl)pyridine] | < 100 | < 100
9 | Cc1cnc(-c2ccc(-c3n[nH]c4ncc(-c5ccc6c(c5)CC[C@@H](N5C7COCC5C7)CC6)cc34)cc2)c(C)c1 [Example 119, 6-[(7S)-2-{3-[4-(3,5-Dimethylpyridin-2-yl)phenyl]-1H-pyrazolo[3,4-b]pyridin-5-yl}-6,7,8,9-tetrahydro-5H-benzo[7]annulen-7-yl]-3-oxa-6-azabicyclo[3.1.1]heptane] | < 100 | < 100
10 | O=C1CCCCN1c1cccnc1-c1ccc(-c2n[nH]c3ncc(-c4ccc5c(c4)CC[C@@H](N4C6COCC4C6)CC5)cc23)cc1 [Example 127, 1-[2-(4-{5-[(7S)-7-{3-Oxa-6-azabicyclo[3.1.1]heptan-6-yl}-6,7,8,9-tetrahydro-5H-benzo[7]annulen-2-yl]-1H-pyrazolo[3,4-b]pyridin-3-yl}phenyl)pyridin-3-yl]piperidin-2-one] | < 100 | < 100
11 | Cc1cc(-c2ncccc2C)ccc1-c1n[nH]c2ncc(-c3ccc4c(c3)CC[C@@H](N3C5COCC3C5)CC4)cc12 [Example 30, 6-[(7S)-3-[3-[2-Methyl-4-(3-methylpyridin-2-yl)phenyl]-1H-pyrazolo[3,4-b]pyridin-5-yl]-6,7,8,9-tetrahydro-5H-benzo[7]annulen-7-yl]-3-oxa-6-azabicyclo[3.1.1]heptane] | > 1000 | 100 to 1000
12 | O=C(c1cccnc1-c1ccc(-c2c[nH]c3ncc(-c4ccc5c(c4)CC[C@@H](N4C6COCC4C6)CC5)cc23)cc1)N1CCCC1 [Example 171, 6-[(7S)-2-(3-{4-[3-(Pyrrolidine-1-carbonyl)pyridin-2-yl]phenyl}-1H-pyrrolo[2,3-b]pyridin-5-yl)-6,7,8,9-tetrahydro-5H-benzo[7]annulen-7-yl]-3-oxa-6-azabicyclo[3.1.1]heptane] | < 100 | < 100
13 | FC(F)(F)Oc1cccnc1-c1ccc(-c2c[nH]c3ncc(-c4ccc5c(c4)CC[C@@H](N4C6COCC4C6)CC5)cc23)cc1 [Example 103, 6-[(7S)-2-(3-{4-[3-(Trifluoromethoxy)pyridin-2-yl]phenyl}-1H-pyrrolo[2,3-b]pyridin-5-yl)-6,7,8,9-tetrahydro-5H-benzo[7]annulen-7-yl]-3-oxa-6-azabicyclo[3.1.1]heptane] | < 100 | > 1000
14 | COC[C@H]1CCN([C@H]2CCc3ccc(-c4cnc5[nH]nc(-c6ccc(-c7ncccc7C)cc6)c5c4)cc3CC2)C1 [Example 132, 2-(4-{5-[(7S)-7-[(3S)-3-(Methoxymethyl)pyrrolidin-1-yl]-6,7,8,9-tetrahydro-5H-benzo[7]annulen-2-yl]-1H-pyrazolo[3,4-b]pyridin-3-yl}phenyl)-3-methylpyridine] | < 100 | < 100
15 | CC(C)(O)c1cccnc1-c1ccc(-c2n[nH]c3ncc(-c4ccc5c(c4)CC[C@@H](N4C6COCC4C6)CC5)cc23)nc1 [Example 100, 2-(6′-{5-[(7S)-7-{3-Oxa-6-azabicyclo[3.1.1]heptan-6-yl}-6,7,8,9-tetrahydro-5H-benzo[7]annulen-2-yl]-1H-pyrazolo[3,4-b]pyridin-3-yl}-[2,3′-bipyridin]-3-yl)propan-2-ol] | < 100 | < 100
16 | Cc1cccnc1-c1ccc(-c2c[nH]c3ncc(-c4ccc5c(c4)CC[C@@](C)(N4CCC[C@H]4C)CC5)cc23)cc1 [Example 172, 3-Methyl-2-(4-{5-[(7S)-7-methyl-7-[(2R)-2-methylpyrrolidin-1-yl]-6,7,8,9-tetrahydro-5H-benzo[7]annulen-2-yl]-1H-pyrrolo[2,3-b]pyridin-3-yl}phenyl)pyridine] | < 100 | < 100
17 | c1cncc(-c2ccc(-c3c[nH]c4ncc(-c5ccc6c(c5)CC[C@@H](N5C7COCC5C7)CC6)cc34)cc2)c1 [Example 158, 6-[(7S)-2-{3-[4-(Pyridin-3-yl)phenyl]-1H-pyrrolo[2,3-b]pyridin-5-yl}-6,7,8,9-tetrahydro-5H-benzo[7]annulen-7-yl]-3-oxa-6-azabicyclo[3.1.1]heptane] | < 100 | 100 to 1000
